Measurements taken from US12577213B2 (NINGBO COMBIREG PHARMACEUTICAL TECHNOLOGY CO., LTD., priority 2020, dated 2026).

How the values were obtained:
[1] = system: A549 (non-small cell lung cancer); assay: NCI method SRB growth inhibition, A549; assay type: cell-based; details: Homo sapiens; A549, treated 48 hours, SRB stain
Description: (§1) In this embodiment, the method of National Cancer Institute (NCI) was used to evaluate the anti-tumor activity of the embodiment compounds in the present disclosure. Nine representative cell lines were selected for activity evaluation, including A549 (non-small cell lung cancer), HCT116 (colon cancer), SF295 (central nervous system tumor), LOX-IMVI (melanoma), 786-0 (renal cancer), K562 (leukemia), PC-3 (prostate cancer), OVCAR-3 (ovarian cancer) and HS 578T (breast cancer).
(§2) The specific method was as follows: 60 tumor cell lines of 9 kinds of human cancers were used to evaluate the inhibitory activity of the compound in vitro. A test group, a parallel control group and a vehicle control group were set up. The parallel control group was fixed immediately before the compound was added; the cells in the test group were fixed after being treated with the compound for 48 hours; the vehicle control group was fixed after an equal volume of complete medium was added for 48 hours. Sulforhodamine B (SRB) was used to stain, and the OD value was measured at a wavelength of 515 nm. The specific calculation method was as follows: the OD value of the parallel control group was recorded as Tz, the OD value of the vehicle control group was recorded as C, and the OD value of the test group was recorded as (Ti). If Ti≥Tz, it means that the cells still grow after the drug was added, and the growth rate %=[(Ti−Tz)/(C−Tz)]×100; if Ti<Tz, it means that the cells are killed after the drug was added, and the growth rate %=[(Ti−Tz)/Tz]×100. Three parameters were used to evaluate the anti-tumor activity of compounds in this method: 50% growth inhibitory concentration (GI50): i.e. the compound concentration at [(Ti−Tz)/(C−Tz)]×100=50; complete growth inhibitory concentration (TGI): the compound concentration at Ti=Tz; the drug concentration required to kill 50% of the cells (LC50): i.e. the compound concentration at [(Ti−Tz)/Tz]×100=−50.
(§3) The inhibitory activities of the embodiment compounds on nine representative tumor cell lines were listed in detail in Table 1. Wherein, the GI50 value means “50% growth inhibition rate”, that is, the concentration of the compound to be tested when it can inhibit […] of cell growth; “ND” means not detected.

786-0 (renal cancer) = assay: NCI method SRB growth inhibition, 786-0; assay type: cell-based; details: Homo sapiens; 786-0, treated 48 hours, SRB stain
Description: as §1, §2, §3

HCT116 (colon cancer) = assay: NCI method SRB growth inhibition, HCT116; assay type: cell-based; details: Homo sapiens, HCT-116; HCT116, treated 48 hours, SRB stain
Description: as §1, §2, §3

K562 (leukemia) = assay: NCI method SRB growth inhibition, K562; assay type: cell-based; details: Homo sapiens; K562, treated 48 hours, SRB stain
Description: as §1, §2, §3

PC-3 (prostate cancer) = assay: NCI method SRB growth inhibition, PC-3; assay type: cell-based; details: Homo sapiens; PC-3, treated 48 hours, SRB stain
Description: as §1, §2, §3

LOX-IMVI (melanoma) = assay: NCI method SRB growth inhibition, LOX-IMVI; assay type: cell-based; details: Homo sapiens, treated 48 hours, SRB stain
Description: as §1, §2, §3

[2] = system: SF295 (central nervous system tumor); assay: NCI method SRB growth inhibition, SF295; assay type: cell-based; details: Homo sapiens, SF-295; SF295, treated 48 hours, SRB stain
Description: as §1, §2, §3

OVCAR-3 (ovarian cancer) = assay: NCI method SRB growth inhibition, OVCAR-3; assay type: cell-based; details: Homo sapiens; OVCAR-3, treated 48 hours, SRB stain
Description: as §1, §2, §3

HS 578T (breast cancer) = assay: NCI method SRB growth inhibition, HS 578T; assay type: cell-based; details: Homo sapiens, HS578T, treated 48 hours, SRB stain
Description: as §1, §2, §3

[3] = Liver microsomes stability; assay type: in vitro ADME, human; details: 1 μM compound, 1 mg/mL human liver microsomes, 1 mM NADPH; for half-life at 1 μM: human, human liver microsomes, read-out: T½ of HLM
Experimental: The compound to be tested with final concentration of 1 μM was incubated with 1 mg/mL of human liver microsomes and 1 mM of NADPH, and a group without NADPH was set as a negative control. The reaction mixture was quenched with methanol at five time points of 0, 5, 15, 30 and 60 min, respectively, then centrifuged at 2500 rpm for 20 min to precipitate proteins, and the resulting supernatant was analyzed by LC-MS/MS. The data was analyzed and the k value and half-life T1/2 was calculated, T1/2(min)=0.693/k.
Wherein, compounds a, b and c are active compounds disclosed in patent No. ZL201610154581.3.

| Compound | GI50 [1] [nM] | GI50 (786-0 (renal cancer)) [nM] | GI50 (HCT116 (colon cancer)) [nM] | GI50 (K562 (leukemia)) [nM] | GI50 (PC-3 (prostate cancer)) [nM] | GI50 (LOX-IMVI (melanoma)) [nM] | GI50 [2] [nM] | GI50 (OVCAR-3 (ovarian cancer)) [nM] | GI50 (HS 578T (breast cancer)) [nM] | microsomal CLint at 1 μM [3] [µL/min/mg] | half-life at 1 μM [3] [min] | T½ of HLM [3] [min] |
| --- | --- | --- | --- | --- | --- | --- | --- | --- | --- | --- | --- | --- |
| [2H]C([2H])([2H])Oc1c(OC)cc(C(=O)Nc2cc3c(cc2Oc2cc(C)cc(C)c2)C(=O)N[C@@H](CC(=O)N(CC)CC)C(=O)N3)c(Cl)c1OC [Compound 2, (S)-2-chloro-N-[3-[2-(diethylamino)-2-oxoethyl]-7-(3,5-dimethylphenoxy)-2,5-dioxo-2,3,4,5-tetrahydro-1H-benzo[e][1,4]diazepin-8-yl]-3,5-dimethoxy-4-(trideuteromethoxy)benzamide] | 13.1 | 11.8 | < 5 | < 5 | 5.5 | < 5 | 7.9 | 6.1 | 30.8 | 32 | 21.7 |  |
| [2H]C([2H])([2H])c1c(OC)cc(C(=O)Nc2cc3c(cc2Oc2cc(C)cc(C)c2)C(=O)N[C@@H](CC(=O)N(CC)CC)C(=O)N3)c(Cl)c1OC [Compound 3, (S)-2-chloro-N-[3-[2-(diethylamino)-2-oxoethyl]-7-(3,5-dimethylphenoxy)-2,5-dioxo-2,3,4,5-tetrahydro-1H-benzo[e][1,4]diazepin-8-yl]-3,5-dimethoxy-4-(trideuteromethyl)benzamide] | < 5 | 110 | 11.2 | 8.4 | 43.9 | 18.4 | 53.2 | 28.6 | 91.9 | 18.1 | 38 | 38.3 |
| [2H]C([2H])([2H])Oc1cc(C(=O)Nc2cc3c(cc2Oc2cc(C)cc(C)c2)C(=O)N[C@@H](CC(=O)N(CC)CC)C(=O)N3)c(Br)c(OC([2H])([2H])[2H])c1OC([2H])([2H])[2H] [Compound 4, (S)-2-bromo-N-[3-[2-(diethylamino)-2-oxoethyl]-7-(3,5-dimethylphenoxy)-2,5-dioxo-2,3,4,5-tetrahydro-1H-benzo[e][1,4]diazepin-8-yl]-3,4,5-tris(trideuteromethoxy)benzamide] | < 5 | 11.9 | < 5 | < 5 | < 5 | < 5 | 6 | < 5 |  | 20.5 | 33.8 |  |
| [2H]C([2H])([2H])OC(=O)C[C@@H]1NC(=O)c2cc(Oc3cc(C)cc(C)c3)c(NC(=O)c3cc(OC)c(OC)c(OC)c3Cl)cc2NC1=O [Compound 9, (S)-2-[8-(2-chloro-3,4,5-trimethoxybenzamido)-7-(3,5-dimethylphenoxy)-2,5-dioxo-2,3,4,5-tetrahydro-1H-benzo[e][1,4]diazepin-3-yl]acetic acid trideuteromethyl ester] | 23 | 44.8 | 14.8 | 17 | 13.1 | 13.9 | 15.2 | 8.6 | 40.5 | 5.9 | 117 |  |
| [2H]C([2H])([2H])Oc1cc(C(=O)Nc2cc3c(cc2Oc2cc(C)cc(C)c2)C(=O)N[C@@H](CC(=O)N2CCC(F)(F)CC2)C(=O)N3)c(Cl)c(OC([2H])([2H])[2H])c1OC([2H])([2H])[2H] [Compound 10, (S)-2-chloro-N-[3-[2-(4,4-difluoropiperidin-1-yl)-2-oxoethyl]-7-(3,5-dimethylphenoxy)-2,5-dioxo-2,3,4,5-tetrahydro-1H-benzo[e][1,4]diazepin-8-yl]-3,4,5-tris(trideuteromethoxy)benzamide] | 35.4 | 37 | 34.7 | < 5 | < 5 | < 5 | 10.7 | < 5 | 6.4 | 10.2 | 68 |  |
| [2H]C([2H])([2H])N(C(=O)C[C@H]1C(=O)Nc2cc(NC(=O)c3cc(OC)c(OC)c(OC)c3Br)c(Oc3cc(C)cc(C)c3)cc2C(=O)N1C)C([2H])([2H])[2H] [Compound 15, (S)-2-bromo-N-[3-[2-[bis(trideuteromethyl)amino]-2-oxoethyl]-7-(3,5-dimethylphenoxy)-4-methyl-2,5-dioxo-2,3,4,5-tetrahydro-1H-benzo[e][1,4]diazepin-8-yl]-3,4,5-trimethoxybenzamide] | < 5 | 6.2 |  | < 5 | < 5 | < 5 | < 5 | < 5 |  | 10.8 | 64.2 |  |
| [2H]C([2H])([2H])Oc1cc(C(=O)Nc2cc3c(cc2Oc2cc(C)cc(C)c2)C(=O)N(C)[C@@H](CC(=O)N2CCC(F)(F)CC2)C(=O)N3)c(Cl)c(OC([2H])([2H])[2H])c1OC([2H])([2H])[2H] [Compound 17, (S)-2-chloro-N-[3-[2-(4,4-difluoropiperidin-1-yl)-2-oxoethyl]-7-(3,5-dimethylphenoxy)-4-methyl-2,5-dioxo-2,3,4,5-tetrahydro-1H-benzo[e][1,4]diazepin-8-yl]-3,4,5-tris(trideuteromethoxy)benzamide] | 15.8 | 10 | 44.9 | < 5 | < 5 | < 5 | 8 | 8.4 | 5.6 | 34.5 | 20.1 |  |
| [2H]C([2H])([2H])N1C(=O)c2cc(Oc3cc(C)cc(C)c3)c(NC(=O)c3cc(OC)c(OC)c(OC)c3Br)cc2NC(=O)[C@@H]1CC(=O)N(CC)CC [Compound 18, (S)-2-bromo-N-[3-[2-(diethylamino)-2-oxoethyl]-7-(3,5-dimethylphenoxy)-4-trideuteromethyl-2,5-dioxo-2,3,4,5-tetrahydro-1H-benzo[e][1,4]diazepin-8-yl]-3,4,5-trimethoxybenzamide] | < 5 | < 5 | < 5 | < 5 | < 5 | < 5 | < 5 | < 5 | 15.4 | 65.1 | 10.6 |  |
| [2H]C([2H])([2H])N(C(=O)C[C@@H]1NC(=O)c2cc(Oc3cc(C)cc(C)c3)c(NC(=O)c3cc(OC)c(OC)c(OC)c3Br)cc2NC1=O)C([2H])([2H])[2H] [Compound 22, (S)-2-bromo-N-[3-[2-[bis(trideuteromethyl)amino]-2-oxoethyl]-7-(3,5-dimethylphenoxy)-2,5-dioxo-2,3,4,5-tetrahydro-1H-benzo[e][1,4]diazepin-8-yl]-3,4,5-trimethoxybenzamide] | < 5 | 12.6 | 7.1 | < 5 | < 5 | < 5 | 10 | < 5 |  | 4.6 | 151 |  |
| CCN(CC)C(=O)C[C@@H]1NC(=O)c2cc(Oc3cc(C)cc(C)c3)c(NC(=O)c3cc(OC)c(OC)c(OC)c3Br)cc2NC1=O [b, reference compound] |  |  |  |  |  |  |  |  |  | 26.4 | 26.3 |  |
| CCN(CC)C(=O)C[C@@H]1NC(=O)c2cc(Oc3cc(C)cc(C)c3)c(NC(=O)c3cc(OC)c(OC)c(OC)c3Cl)cc2NC1=O [c, reference compound] |  |  |  |  |  |  |  |  |  | 26.5 | 26.2 |  |
